Holding throughout (assay type): cell-based
The target of one experiment is T1, human TLR8 (Homo sapiens, UniProt Q9NR97).
T1 construct: host or cells: HEK-Blue cells
T1 sequence (Q9NR97 27-1041): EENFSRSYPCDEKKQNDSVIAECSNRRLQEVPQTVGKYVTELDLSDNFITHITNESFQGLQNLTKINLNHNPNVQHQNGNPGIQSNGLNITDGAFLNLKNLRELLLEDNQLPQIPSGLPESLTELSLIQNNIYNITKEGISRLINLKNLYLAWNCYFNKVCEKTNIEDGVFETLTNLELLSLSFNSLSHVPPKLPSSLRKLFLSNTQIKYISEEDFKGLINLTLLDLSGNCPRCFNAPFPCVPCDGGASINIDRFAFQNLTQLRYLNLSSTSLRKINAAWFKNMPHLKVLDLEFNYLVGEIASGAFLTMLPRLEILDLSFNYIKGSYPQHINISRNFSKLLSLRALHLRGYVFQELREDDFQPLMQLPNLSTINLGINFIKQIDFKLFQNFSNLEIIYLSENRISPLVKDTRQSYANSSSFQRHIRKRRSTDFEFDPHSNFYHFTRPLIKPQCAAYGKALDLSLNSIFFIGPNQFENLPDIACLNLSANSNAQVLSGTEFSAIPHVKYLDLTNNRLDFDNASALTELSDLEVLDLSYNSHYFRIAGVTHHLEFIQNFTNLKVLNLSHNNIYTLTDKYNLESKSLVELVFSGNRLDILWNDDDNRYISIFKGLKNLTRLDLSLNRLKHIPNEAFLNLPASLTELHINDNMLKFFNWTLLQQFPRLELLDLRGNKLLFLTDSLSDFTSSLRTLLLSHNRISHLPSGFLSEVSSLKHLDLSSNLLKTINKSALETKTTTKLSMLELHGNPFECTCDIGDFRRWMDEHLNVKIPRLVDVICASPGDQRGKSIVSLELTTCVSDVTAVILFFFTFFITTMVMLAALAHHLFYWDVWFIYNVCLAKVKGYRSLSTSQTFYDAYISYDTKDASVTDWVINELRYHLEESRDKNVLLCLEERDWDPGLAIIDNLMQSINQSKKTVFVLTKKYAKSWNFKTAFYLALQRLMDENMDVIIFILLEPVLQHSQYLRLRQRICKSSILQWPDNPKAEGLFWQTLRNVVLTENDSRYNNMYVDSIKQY
In words: TLR8 inhibition reporter assay (HEK-Blue SEAP reporter, R848 stimulation). As to conditions: HEK-Blue cells overexpressing human TLR8, SEAP reporter, R848 15.9 μM, 22 hour incubation. Summed up:
(§1)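 Screening used HEK-Blue cells overexpressing one human TLR (7, 8 or 9) and an IFN-β minimal promoter–NF-κB/AP-1 SEAP construct. Stimulation lasted 22 h at 37 °C with receptor-specific agonist: gardiquimod, R848 or ODN2006 at 7.5 μM, 15.9 μM and 5 nM.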
On the technique in general: A reporter such as luciferase makes a cellular process visible.

A further experiment has as its target T2, human TLR9 (Homo sapiens, UniProt Q9NR96).
T2 construct: host or cells: HEK-Blue cells
T2 sequence (Q9NR96 26-1032): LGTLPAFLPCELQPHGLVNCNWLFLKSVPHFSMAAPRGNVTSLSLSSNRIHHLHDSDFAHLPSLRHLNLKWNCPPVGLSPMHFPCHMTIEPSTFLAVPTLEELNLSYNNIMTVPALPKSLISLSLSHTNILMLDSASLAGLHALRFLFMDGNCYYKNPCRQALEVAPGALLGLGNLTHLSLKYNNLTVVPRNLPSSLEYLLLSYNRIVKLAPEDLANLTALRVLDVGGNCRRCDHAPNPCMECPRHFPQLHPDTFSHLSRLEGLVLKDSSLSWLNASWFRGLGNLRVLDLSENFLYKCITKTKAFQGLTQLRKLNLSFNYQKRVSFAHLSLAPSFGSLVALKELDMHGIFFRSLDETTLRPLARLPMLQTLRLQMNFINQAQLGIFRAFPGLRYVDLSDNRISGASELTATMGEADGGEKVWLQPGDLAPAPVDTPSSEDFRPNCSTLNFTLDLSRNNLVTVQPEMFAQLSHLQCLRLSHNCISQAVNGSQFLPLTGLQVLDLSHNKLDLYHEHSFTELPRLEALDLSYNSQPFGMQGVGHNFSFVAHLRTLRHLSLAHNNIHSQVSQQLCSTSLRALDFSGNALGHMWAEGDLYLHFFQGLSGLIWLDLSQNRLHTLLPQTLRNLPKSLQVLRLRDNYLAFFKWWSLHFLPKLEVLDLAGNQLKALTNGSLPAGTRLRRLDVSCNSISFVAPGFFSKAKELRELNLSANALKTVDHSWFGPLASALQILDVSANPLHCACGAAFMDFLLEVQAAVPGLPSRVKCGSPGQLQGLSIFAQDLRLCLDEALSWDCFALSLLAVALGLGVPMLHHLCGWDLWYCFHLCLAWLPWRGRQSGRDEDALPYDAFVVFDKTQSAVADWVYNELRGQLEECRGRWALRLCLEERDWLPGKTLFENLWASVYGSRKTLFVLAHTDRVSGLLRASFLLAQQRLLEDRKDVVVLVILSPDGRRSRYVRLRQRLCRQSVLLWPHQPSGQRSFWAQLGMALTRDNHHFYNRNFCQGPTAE
In words: TLR9 inhibition reporter assay (HEK-Blue SEAP reporter, ODN2006 stimulation). To be noted: HEK-Blue cells overexpressing human TLR9, SEAP reporter, ODN2006 5 nM, 22 hour incubation. A digest of the protocol:
as §1

In the next experiment the target is T3, human TLR7 (Homo sapiens, UniProt Q9NYK1).
T3 construct: host or cells: HEK-Blue cells
T3 sequence (Q9NYK1 27-1049): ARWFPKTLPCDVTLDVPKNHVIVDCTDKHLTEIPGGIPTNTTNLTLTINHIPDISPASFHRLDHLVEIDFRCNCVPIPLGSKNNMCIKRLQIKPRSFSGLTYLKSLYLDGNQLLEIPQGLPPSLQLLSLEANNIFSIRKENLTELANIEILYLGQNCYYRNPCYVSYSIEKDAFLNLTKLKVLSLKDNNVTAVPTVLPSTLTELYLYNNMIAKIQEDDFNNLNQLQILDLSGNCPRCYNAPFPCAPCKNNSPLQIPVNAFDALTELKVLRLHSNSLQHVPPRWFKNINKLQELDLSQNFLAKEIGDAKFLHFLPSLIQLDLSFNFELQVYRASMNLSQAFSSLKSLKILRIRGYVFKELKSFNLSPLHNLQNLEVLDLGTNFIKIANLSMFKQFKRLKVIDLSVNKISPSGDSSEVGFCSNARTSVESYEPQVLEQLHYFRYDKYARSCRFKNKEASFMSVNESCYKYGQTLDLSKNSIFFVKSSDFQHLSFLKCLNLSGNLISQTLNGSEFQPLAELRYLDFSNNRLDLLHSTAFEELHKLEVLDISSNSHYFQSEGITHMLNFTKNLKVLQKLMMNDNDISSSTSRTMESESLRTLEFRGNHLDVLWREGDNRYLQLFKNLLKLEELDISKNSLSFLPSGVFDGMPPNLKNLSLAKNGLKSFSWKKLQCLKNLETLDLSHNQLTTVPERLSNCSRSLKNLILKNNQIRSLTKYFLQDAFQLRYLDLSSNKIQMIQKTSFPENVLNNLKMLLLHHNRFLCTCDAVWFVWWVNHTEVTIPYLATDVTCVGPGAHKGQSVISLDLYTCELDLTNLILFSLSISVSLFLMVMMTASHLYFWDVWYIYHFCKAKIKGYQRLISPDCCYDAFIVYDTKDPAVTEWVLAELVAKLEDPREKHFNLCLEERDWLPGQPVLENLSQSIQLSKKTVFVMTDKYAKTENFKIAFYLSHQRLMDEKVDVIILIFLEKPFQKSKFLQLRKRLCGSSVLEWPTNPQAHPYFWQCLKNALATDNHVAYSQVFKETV
In words: TLR7 inhibition reporter assay (HEK-Blue SEAP reporter, gardiquimod stimulation). As to conditions: HEK-Blue cells overexpressing human TLR7, SEAP reporter, gardiquimod 7.5 μM, 22 hour incubation. A digest of the protocol:
as §1

The values below come from patent US11447466B2, “Substituted indole compounds useful as inhibitors of TLR7/8/9” (BRISTOL-MYERS SQUIBB COMPANY, priority 2017, dated 2022).

One may read the IC50 as the concentration needed to halve the response being measured.

Consider `CNC(=O)CN1CCC(c2ccc3[nH]c(-c4nn(C)c(=O)c(C)c4C)c(C(C)C)c3c2)CC1` [Example 131, 2-(4-(3-isopropyl-2-(1,4,5-trimethyl-6-oxo-1,6-dihydropyridazin-3-yl)-1H-indol-5-yl)piperidin-1-yl)-N-methylacetamide], for which the IC50 on human TLR8 amounted to 33.4 nM; against human TLR9, 16200 nM; against human TLR7 it was 245 nM.

For the compound `CCCN1CCC(c2ccc3[nH]c(-c4cc(COC)c(=O)n(C)c4)c(C(C)C)c3c2)CC1` [Example 348, 5-(3-isopropyl-5-(1-propylpiperidin-4-yl)-1H-indol-2-yl)-3-(methoxymethyl)-1-methylpyridin-2(1H)-one], the IC50 is 25.3 nM on human TLR8, 10800 nM against human TLR9 and 7.1 nM against human TLR7.

As to `Cc1cc(-c2[nH]c3ccc(C4CCNCC4)cc3c2C(C)C)cn(C2CCOC2)c1=O` (stereo not drawn) [Example 42, 5-(3-isopropyl-5-(piperidin-4-yl)-1H-indol-2-yl)-3-methyl-1-(tetrahydrofuran-3-yl)pyridin-2(1H)-one], the IC50 against human TLR8 was determined as 134 nM; on human TLR9, 6710 nM; against human TLR7, 40.9 nM.

`Cc1c(-c2[nH]c3ccc(C4CCNCC4)cc3c2C(C)C)cn(C)c(=O)c1N` [Example 19, 3-amino-5-(3-isopropyl-5-(piperidin-4-yl)-1H-indol-2-yl)-1,4-dimethylpyridin-2(1H)-one]: the IC50 against human TLR8 was determined as 39.7 nM; against human TLR9 it was 792 nM; at human TLR7, 25.7 nM.

Regarding `Cc1cc(-c2[nH]c3ccc(C4CCN(C(=O)[C@@H]5C[C@@H](O)CN5C)CC4)cc3c2C(C)C)cn(C)c1=O` [Example 289, 5-(5-(1-((2S,4R)-4-hydroxy-1-methylpyrrolidine-2-carbonyl)piperidin-4-yl)-3-isopropyl-1H-indol-2-yl)-1,3-dimethylpyridin-2(1H)-one], the IC50 at human TLR8 worked out at 12.3 nM; against human TLR9 it was 5280 nM; at human TLR7 it was 5.9 nM.

For `COc1ncccc1-c1cc(-c2[nH]c3ccc(C4CCNCC4)cc3c2C(C)C)cn(C)c1=O` [Example 57, 5-(3-isopropyl-5-(piperidin-4-yl)-1H-indol-2-yl)-2′-methoxy-1-methyl[3,3′-bipyridin]-2(1H)-one], the IC50 against human TLR8 came to 81.9 nM; on human TLR9, 1360 nM; on human TLR7, 68.4 nM.

As to `Cc1cc(-c2[nH]c3ccc(C4CCN(C5CCC(C(C)(C)O)CC5)CC4)cc3c2C(C)C)cn(C)c1=O` (stereo not drawn) [Example 267, 5-(5-(1-(4-(2-hydroxypropan-2-yl)cyclohexyl)piperidin-4-yl)-3-isopropyl-1H-indol-2-yl)-1,3-dimethylpyridin-2(1H)-one], the IC50 on human TLR8 was 6.6 nM; on human TLR9, 3540 nM; on human TLR7, 2.2 nM.

Take `COCCN1CCC(c2ccc3[nH]c(-c4cc(-c5cncnc5)c(=O)n(C)c4)c(C(C)C)c3c2)CC1` [Example 103, 5-(3-isopropyl-5-(1-(2-methoxyethyl)piperidin-4-yl)-1H-indol-2-yl)-1-methyl-3-(pyrimidin-5-yl)pyridin-2(1H)-one]: the IC50 against human TLR8 was 1.3 nM; on human TLR9, 2080 nM; at human TLR7, 9.6 nM.

On to `CC(C)CCN1CCC(c2ccc3[nH]c(-c4cc(-c5ccccc5)c(=O)n(C)c4)c(C(C)C)c3c2)CC1` [Example 90, 5-(5-(1-isopentylpiperidin-4-yl)-3-isopropyl-1H-indol-2-yl)-1-methyl-3-phenylpyridin-2(1H)-one], for which the IC50 at human TLR8 stood at 7 nM; at human TLR9, 1970 nM; against human TLR7 it was 21.7 nM.

Regarding `CC(C)c1c(-c2cc(CCC(C)(C)C)c(=O)n(C)c2)[nH]c2ccc(C3CCNCC3)cc12` [Example 61, 3-(3,3-dimethylbutyl)-5-(3-isopropyl-5-(piperidin-4-yl)-1H-indol-2-yl)-1-methylpyridin-2(1H)-one], the IC50 against human TLR8 worked out at 2280 nM; against human TLR9 it was 2080 nM; against human TLR7 it was 2190 nM.

Take `Cc1cc(-c2[nH]c3ccc(C4CCN(C(C)C)CC4)cc3c2C(C)C)nn(C)c1=O` [Example 192, 6-(3-isopropyl-5-(1-isopropylpiperidin-4-yl)-1H-indol-2-yl)-2,4-dimethylpyridazin-3(2H)-one]: the values for the IC50 against human TLR8, on human TLR9 and against human TLR7 were 12 nM, 2820 nM and 6.4 nM, respectively.

Take `Cc1c(-c2[nH]c3ccc(C4CCN(CC5CCOC5)CC4)cc3c2C(C)C)cn(C)c(=O)c1Cl` (stereo not drawn) [Example 252, 3-chloro-5-(3-isopropyl-5-(1-((tetrahydrofuran-3-yl)methyl)piperidin-4-yl)-1H-indol-2-yl)-1,4-dimethylpyridin-2(1H)-one]: the half-inhibitory concentration (IC50) is 2.7 nM against human TLR8, 2660 nM on human TLR9 and 4.2 nM at human TLR7.

`Cc1cc(-c2[nH]c3ccc(C4CCN(Cc5ccn(C)n5)CC4)cc3c2C(C)C)cn(C)c1=O` [Example 195, 5-(3-isopropyl-5-(1-((1-methyl-1H-pyrazol-3-yl)methyl)piperidin-4-yl)-1H-indol-2-yl)-1,3-dimethylpyridin-2(1H)-one]: the IC50 against human TLR8 was 2.6 nM; at human TLR9, 5190 nM; against human TLR7, 3.9 nM.
